Test [1] concerns the target Dual specificity mitogen-activated protein kinase kinase 1 (Homo sapiens, UniProt Q02750). As to the kind of experiment: Inhibition of MEK1 by HTRF assay. Background: TR-FRET usually uses a lanthanide donor and a delayed reading to cut background.
Test [2] can be described thus: Inhibition of ERK phosphorylation in LPS-stimulated mouse PEC by HTRF assay.
Test [3] has as its target T1, Mitogen-activated protein kinase kinase kinase 8 (Homo sapiens, UniProt P41279). As to the kind of experiment: Inhibition of human recombinant COT by HTRF-based assay.
For test [4], the target named is T1, Mitogen-activated protein kinase kinase kinase 8. The test is described as follows: Inhibition of COT by cell-based HTRF assay.

The source of these data is ChEMBL document CHEMBL1141695, “Discovery of thieno[2,3-c]pyridines as potent COT inhibitors” (Bioorg Med Chem Lett, 2008).

One may read the pIC50 as −log10 of the IC50, conventionally taken in molar units.

Each structure is given as a SMILES string. pIC50: −log10 of the molar value.

T1 sequence (P41279 whole entry): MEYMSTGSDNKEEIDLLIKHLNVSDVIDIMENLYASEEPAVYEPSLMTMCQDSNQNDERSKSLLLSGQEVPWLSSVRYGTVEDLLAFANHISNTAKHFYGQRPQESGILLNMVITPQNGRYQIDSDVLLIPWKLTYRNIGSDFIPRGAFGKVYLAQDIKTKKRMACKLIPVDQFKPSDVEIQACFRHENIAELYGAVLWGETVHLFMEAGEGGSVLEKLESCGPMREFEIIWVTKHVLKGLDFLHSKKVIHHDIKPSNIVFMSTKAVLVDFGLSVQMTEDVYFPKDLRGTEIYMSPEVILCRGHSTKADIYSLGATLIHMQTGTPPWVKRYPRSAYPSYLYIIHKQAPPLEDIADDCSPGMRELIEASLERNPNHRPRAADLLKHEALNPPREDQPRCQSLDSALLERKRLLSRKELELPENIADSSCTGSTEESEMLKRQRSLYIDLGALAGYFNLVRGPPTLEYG
Sequence of Dual specificity mitogen-activated protein kinase kinase 1 (Q02750 whole entry): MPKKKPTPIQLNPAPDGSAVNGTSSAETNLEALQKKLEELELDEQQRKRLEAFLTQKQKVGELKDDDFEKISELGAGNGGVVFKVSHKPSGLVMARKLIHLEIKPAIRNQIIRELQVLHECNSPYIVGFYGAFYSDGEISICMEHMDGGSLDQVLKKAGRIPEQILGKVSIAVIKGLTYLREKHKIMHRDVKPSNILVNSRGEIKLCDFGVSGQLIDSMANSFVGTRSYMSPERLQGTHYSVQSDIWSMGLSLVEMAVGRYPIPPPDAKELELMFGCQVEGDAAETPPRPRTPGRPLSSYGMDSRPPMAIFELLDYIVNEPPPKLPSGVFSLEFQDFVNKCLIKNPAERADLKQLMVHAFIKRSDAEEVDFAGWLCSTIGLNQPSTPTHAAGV

For `CN(C)C(=O)c1ccc(-c2ccc(Oc3cncc4sc(-c5nn[nH]n5)cc34)cc2)cc1`, the pIC50 in test [1] was 4.32; in test [2], below 4.30; in test [3], 7.30.
Regarding `FC(F)(F)c1ccc(-c2ccc(Oc3cncc4sc(-c5nn[nH]n5)cc34)cc2)cc1`, the pIC50 was 5.74 in test [1], 6.25 in test [4], 5.77 in test [2] and 6.55 in test [3].
For `OCc1ccc(-c2ccc(Oc3cncc4sc(-c5nnn[nH]5)cc34)cc2)cc1`, the pIC50 was 4.85 in test [1] and 7.40 in test [3].
For the compound `NC(=O)c1ccc(-c2ccc(Oc3cncc4sc(-c5nn[nH]n5)cc34)cc2)cc1`, the figures for the negative logarithm of the IC50 (pIC50) in test [1], in test [4] and in test [3] were 4.74, 6.89 and 8.00, respectively.
For `Clc1ccccc1-c1ccc(Oc2cncc3sc(-c4nn[nH]n4)cc23)cc1`, the pIC50 in test [1] is 5.82; in test [2], below 4.30; in test [3], 6.82.
Consider `Fc1ccc(-c2ccc(Oc3cncc4sc(-c5nn[nH]n5)cc34)cc2)cc1`, for which the pIC50 is 5.12 in test [1], 5.19 in test [4], 4.95 in test [2] and 6.77 in test [3].
Consider `Nc1ccc(-c2ccc(Oc3cncc4sc(-c5nn[nH]n5)cc34)cc2)cc1`, for which the results for the negative-log IC50 (pIC50) in test [1], in test [2] and in test [3] were 5.82, 5.96 and 6.64, respectively.
As for `c1ccc(-c2ccc(Oc3cncc4sc(-c5nn[nH]n5)cc34)cc2)cc1`, the pIC50 in test [1] is 5.01; in test [4] it was 5.37; in test [2] it was 4.92; in test [3], 6.82.
For the compound `COc1cccc(-c2ccc(Oc3cncc4sc(-c5nnn[nH]5)cc34)cc2)c1`, the pIC50 in test [1] is 4.64; in test [3], 6.62.
On the same counts, the results for `COc1ccc(-c2ccc(Oc3cncc4sc(-c5nn[nH]n5)cc34)cc2)cc1` are 4.31 and 6.89.
For the compound `CC(=O)Nc1cc2c(Oc3ccc(I)cc3)cncc2s1`, the pIC50 in test [3] is below 4.30.
On to `O=c1nc(-c2cc3c(Oc4ccc(I)cc4)cncc3s2)[nH]o1`, for which the pIC50 in test [3] was 5.95.
Take `c1ccc(-c2cccc(Oc3cncc4sc(-c5nn[nH]n5)cc34)c2)cc1`: the pIC50 in test [3] is 5.77.
On to `COc1ccccc1-c1ccc(Oc2cncc3sc(-c4nnn[nH]4)cc23)cc1`, for which the pIC50 in test [1] is 4.66; in test [3], 6.49.
On to `N#Cc1ccc(-c2ccc(Oc3cncc4sc(-c5nn[nH]n5)cc34)cc2)cc1`, for which the pIC50 was 4.67 in test [1], 4.33 in test [2] and 6.51 in test [3].
For the compound `Ic1ccc(Oc2cncc3sc(-c4nn[nH]n4)cc23)cc1`, the pIC50 in test [3] is 6.39.
Consider `O=C(NO)c1cc2c(Oc3ccc(I)cc3)cncc2s1`, for which, in test [3], the pIC50 is 6.27.
For the compound `c1ccc(-c2ccccc2Oc2cncc3sc(-c4nn[nH]n4)cc23)cc1`, in test [3], the pIC50 is 4.82.
Turning to `Brc1ccc(Oc2cncc3sc(-c4nnn[nH]4)cc23)cc1`, in test [3], the pIC50 was 5.80.
Still for that read-out and setting: under `Clc1ccc(Oc2cncc3sc(-c4nnn[nH]4)cc23)cc1` stands 6.15.
For the compound `Clc1cccc(-c2ccc(Oc3cncc4sc(-c5nn[nH]n5)cc34)cc2)c1`, the pIC50 in test [1] is 5.72; in test [2], below 4.30; in test [3] it was 6.92.
With `O=C(O)c1cc2c(Oc3ccc(I)cc3)cncc2s1`, the pIC50 in test [3] was 6.03.
As for `Clc1ccc(-c2ccc(Oc3cncc4sc(-c5nn[nH]n5)cc34)cc2)cc1`, the pIC50 in test [1] is 5.62; in test [4], 5.68; in test [2] it was below 4.30; in test [3], 7.05.
`c1ccc(Oc2cncc3sc(-c4nn[nH]n4)cc23)cc1`: the pIC50 in test [3] is 5.66.
On the same count and under the same terms, with `Nc1cc2c(Oc3ccc(I)cc3)cncc2s1` the figure was below 4.30; with `Cc1ccc(Oc2cncc3sc(-c4nn[nH]n4)cc23)cc1`, 5.12; with `CC(C)(C)c1ccc(Oc2cncc3sc(-c4nn[nH]n4)cc23)cc1`, 6.21.
